Test results: patent publication US7645735B2, “Anti-angiogenic peptides for treating or preventing endometriosis” (Children's Medical Center Corporation, priority 2003, dated 2010)
Values belong to the substance of their own block, whether it stands above or below them. No end group written: not given here.

Key:
female C57BL/6 mice = assay: Estrus cycling by daily vaginal smears; format: in vivo, mouse; settings: larger experiment, 2.5 mg/kg
Excerpt: To investigate the effect of the angiogenesis inhibitors used above on estrus cycling, mice from the first two studies underwent daily vaginal smears in the middle of the endometriosis experiment. The stage of the estrus cycle was classified by evaluating the cells present at the cytological staining. Briefly, this was done as follows. In order to synchronize estrus cycling prior to surgery, mice were housed in groups of 5 for a week. After endometriosis surgery, with the intention to prevent the suspension of cycling, all mice were housed in individual cages. In the absence of a male, female mice housed in groups may become anestrus. Starting post surgical week two, estrus cycling was evaluated by cytological analysis of daily vaginal smears over one week's period. Exams were performed each day during the early morning hours. Autoclaved, wetted, blunt toothpicks were used to gently scrape the superficial cell layer of the animal's vagina. Cells were transferred to a drop of Evan's blue in 0.9% saline on a glass slide for staining, sealed under a glass cover slip and examined under a microscope (Carl Zeiss, Thornwood, N.Y.). Subsequently, each slide was analyzed under low magnification (×40 to ×100) by two independent investigators, who were masked for the form of treatment and previous data from every mouse.

[1] = tested on: human pancreatic tumor cells BxPC-3; assay: BxPC-3 human pancreatic tumor model in SCID mice; format: in vivo; settings: human endostatin peptides s.c. twice a day at 7 mg/kg/d, final measurement at 28 days, n=3
Procedure: These peptides were initially tested for anti-tumor activity employing the human pancreatic tumor cells BxPC-3 cells, which were implanted in the s.c. dorsa of SCID mice. For systemic treatment, human endostatin peptides, P1-P8, were administered subcutaneously (s.c.) twice a day at 7 mg/kg/d due to the high clearance rate from the mouse circulation. Full-length Fc-Endostatin, hFcES was administered subcutaneously only once per day at a dose of 20 mg/kg/d. PBS was used as a control.
(§1) BxPC-3 and LLC cells were grown in cell culture as described above. […] Mice were shaved and the dorsal skin was cleaned with ethanol before tumor cell injection. A suspension of 5×10^6 tumor cells in 0.1 ml RPMI-1640 (for BxPC-3) or DMEM (for LLC) was injected subcutaneously (s.c.) into the dorsa of mice at the proximal midline. BxPC-3 cells were implanted in SCID mice and LLC in C57B1/6J mice.
(§2) The mice were weighed and tumors were measured every 3-5 days in two diameters with a dial-caliper. Volumes were determined using the formula a2×b×0.52 (where a is the shortest and b is the longest diameter). Data is represented as volume of treated tumor over control (T/C). At the completion of each experiment, the mice were euthanized with CO2 asphyxiation. Tumors were fixed in 10% buffered Formalin (Fisher Scientific, Fair Lawn, N.J.) and paraffin-embedded.
(§3) For treatment of tumor-bearing mice, tumor volumes were allowed to grow to approximately 100 mm^3, and mice were randomized. Treatment was performed by single bolus s.c. injections. Peptides were administered twice a day (every 12 hrs). Doses indicated for peptides were corrected for the purity of peptides (approximately 70%). For example, mice injected with 4 mg/kg/d peptide, were actually injected with 2.8 mg/kg/d after correction. The unpaired Student t-test was used for statistical analysis.

LLC = assay: Lewis lung carcinoma (LLC) tumor model in C57Bl/6J mice; format: in vivo, mouse; settings: for inhibited LLC (tumor inhibition): peptides s.c. twice a day at 2.8 mg/kg/d, C57B1/6J mice; for tumor volume: LLC, s.c. twice a day 2.8 mg/kg/day, n=5 (FIG. 7)
Procedure: Control mice were treated with PBS. In these experiments, LLC cells were implanted into the s.c. dorsa of C57B1/6J mice, and systemically treated. Peptides (mP1, mP2, mP5, and mP6) were injected (s.c.) twice a day at a dose of 2.8 mg/kg/d, whereas endostatin and PBS were administered once a day at a dose of 20 mg/kg/d.
as §1
Animals with Lewis Lung carcinoma (600-800 mm^3 tumors) were euthanized, and the skin overlying the tumor was cleaned with Betadine and ethanol. Tumor tissue was excised under aseptic conditions. A suspension of tumor cells in 0.9% normal saline was made by passage of viable tumor tissue through a sieve and a series of sequentially smaller hypodermic needles of diameter 22- to 30-gauge. The final concentration was adjusted to 1×10^7 cells/ml, and the suspension was placed on ice. The injection of tumor cells was performed as described above.
as §2, §3

[2] = tested on: human microvascular endothelial cells (HMVECs); assay: VEGF-induced migration of HMVECs, modified Boyden chamber; format: cell-based
Procedure: Endostatin peptides were tested for anti-endothelial cell migration activity. Inhibition of VEGF-induced migration of human microvascular endothelial cells (HMVECs) was determined using several doses of endostatin peptides (FIG. 5). Human peptides were used because the cells were of human origin and the migration response of the HMVECs was assayed using a modified Boyden chamber. VEGF (5 ng/ml) was used a chemotactic agent and cells were challenged with human endostatin (Entremed; EM-ES), human Fc-Endostatin (nFcES), human P1 (hP1), human P2 (hP2), human P6 (hP6), and human P1-H1/3A (hP1-H1/3A). Total migration per membrane was quantified from the capture images using Scion Image Software (National Institutes of Health) and the unpaired Student T test was used for statistical analysis. […] No significant differences in inhibition between these concentrations were observed. At higher and lower concentrations less or no inhibition was observed. At 500 ng/ml of hP1 no inhibition was observed. Thus, similar to full-length endostatin, there is a U-shaped response to hP1 inhibition of EC migration.
The motility response of HMVEC-d cells was assayed using a modified Boyden chamber. Cells were plated in T75-cm2 flasks at 0.5×10^6 cells per flask and allowed to grow for 48 h (˜70% confluent) prior to the migration assay. To facilitate cell adhesion, the upper membrane of a transwell ([…]; Costar) was coated with fibronectin ([…]; Becton Dickinson, Bedford, Mass.) for 1 h at 37° C. Coated membranes were rinsed with PBS and allowed to air dry immediately before use. Cells were detached by trypsinization, treated with trypsinization neutralization solution (Clonetics), and resuspended at a final concentration of 1×10^6 cells/ml in serum-free endothelial basal medium (EBM; Clonetics) containing 0.1% BSA. Cells (200,000 in 0.2 ml) were then treated with 0.2 ml of EBM/BSA containing endostatin or peptides at the indicated concentrations. Cells were incubated for 20 min. at 37° C. with occasional shaking. Cells (50,000 in 100 μl) were added to the upper chamber of the transwell. EBM or EBM supplemented with VEGF (5 ng/ml) was added to the lower chamber and cells were allowed to migrate toward the bottom chamber for 4 h in a humidified incubator containing 5% CO2. Transwell filters were rinsed once with PBS and fixed and stained using a Diff-Quik staining kit (Baxter) following the manufacturer's protocol. Non-migrated cells were removed from the upper chamber with a cotton swab. Stained filters were cut out of the chamber and mounted onto slides using Permount (Fisher). The number of migrated cells was measured using microscopy (three fields from each membrane were captured using a 40× objective), and images were captured with a CCD camera using SPOT software. Total migration per membrane was quantified from the captured images using Scion Image software (National Institutes of Health). All experiments were run in triplicate. The unpaired Student t-test was used for statistical analysis.

C57B1/6J mice = assay: Corpus luteum formation in ovaries; format: in vivo, mouse; settings: after 4 weeks of treatment, compared to control animals
Excerpt: The corpus luteum (CL) is the remnant of the graafian follicle after ovulation consisting mainly of connective tissue, granulosa and theca interna cells. The presence of Corpora lutea in an ovary is indicative of recent ovulation. We therefore examined the ovaries of mP-1 and vehicle treated mice for CL formation. After 4 weeks of treatment of C57B1/6J mice with induced endometriosis with mP-1, ovaries were removed, fixed in formalin and paraffin embedded. Ovaries from twelve, randomly chosen mice (three mice of both groups from the first two experiments) were sectioned (4-6 μm), and four consecutive sections were put on one slide. Every other slide was then stained with hematoxylin and eosin (H/E). The highest number of Corpora lutea per ovary on each slide was recorded, all numbers added and the mean number calculated.

Female SCID mice = settings: mouse, in vivo
Procedure: Female SCID mice were injected with human pancreatic tumor cells subcutaneously. When tumors reached a volume of approximately 100 mm^3 endostatin or placebo treatment was initiated and continued until the end of the study. After three days, females were mated.
Human BxPC-3 cells were grown in cells culture as described above. After washing with sterile PBS, cells were trypsinized and briefly re-suspended in RPMI 1640 medium containing 10% fetal calf serum (FCS) and 1% glutamine penicillin streptomycin (GPS) solution. After centrifuging, the cell concentration was adjusted to 50×10^6 cells/ml in additive-free RPMI 1640 medium and kept on ice. Female SCID mice were shaved on the dorsal side and the naked skin was cleaned with ethanol prior to injection. A suspension of 5×10^6 cells/ml in 100 μl was then injected subcutaneously into the dorsa of these mice at about one centimetre left of the midline.
Mice were weighed and tumors were measured every 7 days in two diameters using a dial-caliper. Tumor volumes were calculated using the formula a^2×b×0.52, while a being the shorter and b being the longer diameter. When tumors had reached a volume of approximately 100 mm^2 mice were divided into four groups.
During the first experiment, one group received endostatin (20 mg/kg; n=8) or vehicle (n=8) via subcutaneous osmotic pumps (Durect Corp., Cupertino, Calif.). Pumps were inserted via a small incision and placed into a subcutaneous pocket on the right lateral aspect of the animals' dorsa. The pumps were changed every week for a total of four weeks.
The other group received daily subcutaneous injections of endostatin (100 mg/kg, n=5) or vehicle (n=5) for the same period.
During a second study we repeated the experiment with endostatin in subcutaneous pumps. The other group in this series received the murine N-terminal fragment of endostatin (mP-1) at a dose of 2.5 mg/kg twice daily or PBS (n=5 each).
Three days after initiation of treatment female mice were added to a cage containing a male SCID mouse in a 1:1 ratio. All males had been housed separately three days prior to encountering the females and female bedding had been added to the male cages to enhance the males' libido.
For the following seven days every female was checked for a vaginal mucous plug as a sign of mating. These exams were performed during the early morning hours to optimize the results. Once a mucous plug had been noticed, mating was considered ‘successful’, and the female was not further examined in order to minimize iatrogenic stress.
Over the course of pregnancy the following parameters were assessed: ‘Mating Time’ describing the time between male encounter and the occurrence of a mucous plug; ‘Pregnancy Rate’, measured by ultrasound 15 days after the mucous plug was observed. The number of viable fetus was counted during this procedure; ‘Length of Pregnancy’, as measured from the time of successful mating to delivery; ‘Number of Total and Viable Litter’, counted on the day of birth; ‘Weight of Individual Pup’, by weighing the entire litter on the day of birth and calculating the mean weight.

[3] = tested on: vessel density (CD31) of LLC tumors; assay: Vessel density (CD31 staining) of LLC tumor sections; format: in vivo, mouse; settings: peptides 2.8 mg/kg/d s.c. twice a day
Procedure: To determine the effect on angiogenesis after mP1 treatment, LLC tumors treated with mP1, mP2, and endostatin at equimolar concentration were analyzed for vessel density (CD31). […] In each case, peptides were administered twice a day s.c. and LLC tumor sections from day 13 were formalin-fixed paraffin-embedded and then stained with CD31 (PECAM). FIG. 2C show the determination of vessel density and the Y axis is expressed as %CD31/high power field (hpf).
Tumors were fixed in 10% buffered Formalin overnight at 4° C. The next day, tumors were washed three times in PBS and paraffin-embedded. Sections (5 μm) were permeabilized with 40 μg/ml proteinase K (Roche Diagnostics Corp.) in 0.2 M Tris-HCl buffer (pH 7.6) for 25 minutes at 37° C. and washed with PBS. PECAM (1:250) was incubated at 4° C. overnight. Stainings were amplified using tyramide signal amplification direct and indirect kits (NEN Life Science Products Inc., Boston, Mass.). Sections were photographed at 400× magnification using a NIKON TE300 microscope. Vessel density (average of three fields) was determined by IPLab software. The unpaired Student t-test was used for statistical analysis.

Substance: ATAQDFQPVLHLVALNTPLSGGMRGIR [mP1-H1/3A]
- arrest of the estrus cycle (female C57BL/6 mice): Neither mP-1, not the other two peptides, mP-6 and mP-1-H led to an arrest of the estrus cycle

Substance: GSEGPLKPGARIFSFDGKDVLRHPT (listed as Homo sapiens) [hP5]
- inhibited BxPC-3 (tumor inhibition) [1]: 29%

Substance: GSQGQVQPGARIFSFDGRDVLRHPA (listed as Mus musculus) [mP5]
- inhibited LLC (tumor inhibition) (LLC): No or insignificant activity

Substance: HPAWPQKSVWHGSDPSGRRLMESY [mP6]
- arrest of the estrus cycle (female C57BL/6 mice): Neither mP-1, not the other two peptides, mP-6 and mP-1-H led to an arrest of the estrus cycle

Substance: HPTWPQKSVWHGSDPNGRRLTESY (listed as Homo sapiens) [hP6]
- inhibition of EC migration ([2]; 200 and 100 ng/ml, VEGF 5 ng/ml): only inhibited at doses of 100 and 200 ng/ml
- inhibition of EC migration ([2]; concentrations lower than 100 ng/ml): no inhibition

Substance: HSHRDFQPVLHLVALNSPLSGGMRG (listed as Homo sapiens) [hP1]
- inhibited BxPC-3 (tumor inhibition) [1]: 39%
- inhibition of EC migration ([2]; 500 ng/ml, VEGF 5 ng/ml): no inhibition
- inhibition of EC migration ([2]; 100, 62.5, and 25 ng/ml, VEGF 5 ng/ml): best inhibition

Substance: HTHQDFQPVLHLVAL (listed as Mus musculus) [mP1-15]
- tumor volume (LLC): inhibit tumor volume

Substance: HTHQDFQPVLHLVALNTPLS (listed as Mus musculus) [mP1-20]
- tumor volume (LLC): inhibit tumor volume

- length of pregnancy (Female SCID mice): 20 days
- litter size per delivery (Female SCID mice): 7.4±1.3
- mean weight of pups on the day of delivery (Female SCID mice): 1.29 g
- pregnancy rate with live births (Female SCID mice): All mice receiving mP-1 became pregnant
Substance: HTHQDFQPVLHLVALNTPLSGGMRGIR [mP1]
- arrest of the estrus cycle (female C57BL/6 mice): Neither mP-1, not the other two peptides, mP-6 and mP-1-H led to an arrest of the estrus cycle
- mean number of Corpora lutea in ovaries (C57B1/6J mice): did not reduce the mean number of Corpora lutea
- effect on the offspring (Female SCID mice): did not see any negative effect on the offspring

Substance: MRGIRGA DFQAFQQARA VGLSGTFR (MRGIRGADFQAFQQARAVGLSGTFR; listed as Mus musculus) [mP2]
- LLC tumor formation (LLC; higher concentration 14 mg/kg/d): could inhibit LLC tumor formation as well as mP1 at 2.8 mg/kg/d
- inhibited LLC (tumor inhibition) (LLC): No or insignificant activity
- reduction of vessel density (%CD31/hpf) [3]: no effect

Substance: TFRAFLSSRLQDLYSIVRRADRAAV (listed as Homo sapiens) [hP3]
- inhibited BxPC-3 (tumor inhibition) [1]: failed to inhibit tumor growth
